Data from patent US5349127A, “Expression of herbicide metabolizing cytochromes P450” (priority 1992, dated 1994).

What was measured:
[1] = system: S. lividans pCAO200SU1-FeS-B#9; test: Sulfonylurea metabolism by washed cell suspension (Examples 6-9); format: in vitro ADME, Streptomyces lividans
Protocol: (§1) Herbicides and their metabolites are measured by HPLC as described by Romesser et al., BBRC 140: 650-659 (1986), herein incorporated by reference, except that 0.1% H3 PO4 is used in both solvents. Chromatographic identity and quantitation of the herbicides and their resulting metabolites is determined by comparing them chromatographically with authentic standard compounds. Identity of the resulting metabolites is also confirmed by UV spectroscopy.
A 100 ml culture of S. griseolus ATCC 11796 in sporulation broth and a 50 ml culture of S. lividans transformed with pCAO400 in YEME broth were prepared and incubated for 24 hours as described. At that time, the S. griseolus culture was split into two 50 ml aliquots into two separate flasks and 25 ml of fresh sporulation broth was added to each and 9 mg of […] was added to one of these cultures to induce cytochrome P450SU1 expression. Fresh YEME broth (25 ml) was added to the S. lividans culture. After an additional 6 hours growth at 30° C., the cells in each culture were harvested as described above, washed twice with MOPS (50 mM, pH 7.2) and recentrifuged. The cell pellets were resuspended in four cell volumes of MOPS (50 mM, pH 7.2) containing 0.2% glucose and about 100 μg/ml of 10004. These cell suspensions were incubated at 30° C. with shaking and aliqouts were taken at 2 and 5.5 hours. The supernatant of each aliquot was analyzed by HPLC and the concentrations of the sulfonylurea compound 10004 and its metabolite 10005 were determined.
S. lividans transformed respectively with pCAO200SU1-FeS-B#9, pCAO200SU#112and pCAO200 were cultured for 36 hours in 400 ml of YEME broth at 30° C. S. griseolus ATCC 11796 was similarly cultured in 400 ml of sporulation broth. Six hours before harvesting the cells, 150 ml of fresh YEME broth was added to the S. lividans cells, and the S. griseolus cells were split into two 200 ml cultures with 100 ml of fresh sporulation broth added to each. 10001 (36 mg) was added to one of the two S. griseolus cultures to induce cytochrome P450SU1. […]

S. lividans pCAO200 [2] = test: as above; format: in vitro ADME, Streptomyces lividans; details: substrate 10006
Protocol: as §1, with “spectroscopy. […]” for “spectroscopy.”
(§2) S. lividans transformed respectively with pCAO200SU1-FeS-B#9, pCAO200SU#112and pCAO200 were cultured for 36 hours in 400 ml of YEME broth at 30° C. S. griseolus ATCC 11796 was similarly cultured in 400 ml of sporulation broth. Six hours before harvesting the cells, 150 ml of fresh YEME broth was added to the S. lividans cells, and the S. griseolus cells were split into two 200 ml cultures with 100 ml of fresh sporulation broth added to each. 10001 (36 mg) was added to one of the two S. griseolus cultures to induce cytochrome P450SU1. The cells were prepared as described above in Example 5 and the concentrations of the sulfonylurea compound 10006 and its metabolites 10007, 10008 or 10009 were determined.

[3] = system: S. lividans pCAO200SU1#12; test: as above; format: in vitro ADME, Streptomyces lividans
Protocol: as §1, with “spectroscopy. […]” for “spectroscopy.”
as §2

S. lividans pCAO200 [4] = test: as above; format: in vitro ADME, Streptomyces lividans; details: substrate 10010
[5] = system: S. lividans pCAO200SU2-FeS-A#11; test: Sulfonylurea metabolism by washed cell suspension (Examples 11-12); format: in vitro ADME, Streptomyces lividans; details: substrate 10010
[6] = system: S. lividans pCAO200SU1-FeS-B#9; test: Percent conversion of herbicides by cultures (Example 16); format: in vitro ADME, Streptomyces lividans; details: for Percent Conversion: 3.0 mg herbicide in 25 ml broth, 24 hours
Protocol: (§3) Separate cultures (50 ml) inoculated with S. lividans C37, S. lividans transformed with pCAO200SU1-FeS-B#9, S. griseolus ATCC11796, S. griseolus PH2003 transformed with pIJ425, or S. ariseolus PH2003 transformed with pCS325 were cultured in sporulation broth for 18 hours at 30° C. with shaking. Each culture was then resuspended in 25 ml fresh sporulation broth and 3.0 mg herbicide added. In the case of cultures of S. griseolus ATCC11796, a second culture containing herbicide and 3.0 mg 10001 was also prepared. Each culture was reincubated for 24 hours, then an aliquot of the medium was withdrawn and analyzed by HPLC. The percent conversion of herbicide was determined.

S. lividans C37 = test: as above; format: in vitro ADME, Streptomyces lividans; details: 3.0 mg herbicide in 25 ml broth; 24 hours
Protocol: as §3

[7] = system: S. griseolus PH2003 pCS325; test: as above; format: in vitro ADME, Streptomyces griseolus; details: for Percent Conversion: 3.0 mg herbicide in 25 ml broth, 24 hours; for metabolism by bacteria containing constitutively expressed P450SU2: summary of Table 13
Protocol: as §3

[8] = system: S. griseolus PH2003 pIJ425; test: as above; format: in vitro ADME, Streptomyces griseolus; details: 3.0 mg herbicide in 25 ml broth; 24 hours
Protocol: as §3

S. griseolus ATCC11796 = test: Metabolism of 10015 analogs to 10014 (Example 17); format: in vitro ADME, Streptomyces griseolus
Protocol: Cultures of S. griseolus ATCC11796 were cultivated in sporulation-broth (50ml) at 30° C. with shaking for 17 hours. Each culture was then resuspended in 25 ml fresh sporulation broth, 3.0 mg sulfonylurea was added, and the culture reincubated for 4 days. Aliquots of the medium were then analyzed by HPLC. Formation of 10014 was measured based on similarity of retention time and UV spectrum of the test metabolite to that formed by metabolism of 10015.

[9] = system: S. lividans pCAO200SU1-FeS-B#9; test: Percent conversion of non-sulfonylurea herbicides (Example 29); format: in vitro ADME, Streptomyces lividans; details: for Percent Conversion: 3.0 mg herbicide in 25 ml broth, 18 hours; for metabolism by bacteria containing constitutively expressed P450SU1: summary of Table 29
Protocol: This experiment was performed as in Example 17 with the following changes. Separate cultures (50 ml) inoculated with S. lividans C37, S. lividans transformed with pCAO200SU1-FeS-B#9, or S. griseolus ATCC11796 were cultured in sporulation broth for 18 hours at 30° C. with shaking. Each culture was then resuspended in 25 ml fresh sporulation broth and 3.0 mg herbicide added. Each culture was reincubated for 18 hours, then an aliquot of the medium was withdrawn and analyzed by HPLC. The percent conversion of herbicide was determined.

SMILES: COC(=O)c1ccccc1S(=O)(=O)NC(=O)Nc1nc(CO)nc(OC)n1 [compound 10009, N-[(4-methoxy-6-hydroxymethyl-1,3,5-triazin-yl)aminocarbony1]-2-methoxycarbonylbenzenesulfonamide]
- concentration in supernatant ([1]; substrate 10006, 2 h): 15 µM
- concentration in supernatant ([1]; substrate 10006, 4 h): 33 µM
- concentration in supernatant ([1]; substrate 10006, 6 h): 49 µM
- concentration in supernatant (S. lividans pCAO200 [2]; 2 h): 0 nM
- concentration in supernatant (S. lividans pCAO200 [2]; 4 h): 0 nM
- concentration in supernatant (S. lividans pCAO200 [2]; 6 h): 0 nM
- concentration in supernatant ([3]; substrate 10006, 2 h): 0 µM
- concentration in supernatant ([3]; substrate 10006, 4 h): 1 µM
- concentration in supernatant ([3]; substrate 10006, 6 h): 1 µM

SMILES: COC(=O)c1ccccc1S(=O)(=O)NC(=O)Nc1nc(C)cc(CO)n1 [compound 10011, N-[(4-hydroxymethyl-6-methyl-pyrimidin-2-yl)aminocarbonyl]-2-methoxycarbonylbenzenesulfonamide]
- concentration in supernatant (S. lividans pCAO200 [4]; 2 h): 1 µM
- concentration in supernatant (S. lividans pCAO200 [4]; 4 h): 2 µM
- concentration in supernatant (S. lividans pCAO200 [4]; 6 h): 3 µM
- concentration in supernatant ([5]; 2 h): 1 µM
- concentration in supernatant ([5]; 4 h): 5 µM
- concentration in supernatant ([5]; 6 h): 14 µM
- concentration in supernatant ([1]; substrate 10010, 2 h): 34 µM
- concentration in supernatant ([1]; substrate 10010, 4 h): 37 µM
- concentration in supernatant ([1]; substrate 10010, 6 h): 27 µM
- concentration in supernatant ([3]; substrate 10010, 2 h): 4 µM
- concentration in supernatant ([3]; substrate 10010, 4 h): 7 µM
- concentration in supernatant ([3]; substrate 10010, 6 h): 11 µM

SMILES: CSc1nnc(C(C)(C)C)c(=O)n1N [compound 10018, 4-amino-6-tert-butyl-3-(methylthio)-AS-triazin-5(4H)-one]
- Percent Conversion [6]: 56%
- metabolism by bacteria containing constitutively expressed P450SU1 ([6]; summary of Table 13): metabolized
- Percent Conversion (S. lividans C37): 0%
- Percent Conversion [7]: 72%
- metabolism by bacteria containing constitutively expressed P450SU2 [7]: metabolized
- Percent Conversion [8]: 10%

SMILES: COC(=O)C1Cc2c(c(Cl)cc(F)c2N2C(=O)C3=C(CCCC3)C2=O)O1 (centres unmarked) [compound 10020, 7-chloro-5-fluoro-4-(2,3,4,5,6,7-hexahydro-1,3-dioxo-1H-isoindol-2-yl)-2,3-dihydro-2-benzofurancarboxylic acid, methyl ester]
- Percent Conversion [6]: 19%
- Percent Conversion [7]: 89%
- metabolism by bacteria containing constitutively expressed P450SU2 [7]: metabolized
- Percent Conversion [8]: 7%

SMILES: CCNc1nc(Cl)nc(NC(C)(C)C#N)n1 [compound 10021, 2-[4-chloro-6-(ethylamino-1,3,5-triazin-2-yl)amino]-2-methylpropanenitrile]
- Percent Conversion [6]: 23%
- Percent Conversion (S. lividans C37): 0%
- Percent Conversion [7]: 93%
- metabolism by bacteria containing constitutively expressed P450SU2 [7]: metabolized
- Percent Conversion [8]: 7%

SMILES: C[n+]1cccnc1[O-] [compound 10022, 1-methyl-2(1H)-pyrimidinone]
- Percent Conversion [6]: 42%
- Percent Conversion [7]: 96%
- metabolism by bacteria containing constitutively expressed P450SU2 [7]: metabolized
- Percent Conversion [8]: 0%

SMILES: CCN1Cc2cccc(S(=O)(=O)NC(=O)Nc3nc(OC)cc(OC)n3)c2S1(=O)=O [compound 10024, N-[(4,6-dimethoxypyrimidin-2-yl)aminocarbonyl]-2-ethyl-2,3-dihydro-1,2-benzisothiazole-7-sulfonamide-1,1-dioxide]
- metabolism by P450SU1 to phytotoxic 10014 (S. griseolus ATCC11796): metabolized

SMILES: COc1cc(OC)nc(NC(=O)NS(=O)(=O)c2cccc3c2S(=O)(=O)N(Cc2ccccc2)C3)n1 [compound 10025, N-[(4,6-dimethoxypyrimidin-2-yl)aminocarbonyl]2,3-dihydro-2-(phenylmethyl)-1,2-benzisothiazole-7-sulfonamide-1,1-dioxide]
- metabolism by P450SU1 to phytotoxic 10014 (S. griseolus ATCC11796): metabolized

SMILES: COc1cc(OC)nc(NC(=O)NS(=O)(=O)c2cccc3c2S(=O)(=O)N(CCF)C3)n1 [compound 10026, N-[(4,6-dimethoxypyrimidin-2-yl)aminocarbonyl]-2-(2-fluoroethy1)-2,3-dihydro-1,2-benzisothiazole-7-sul fonamide-1,1-dioxide]
- metabolism by P450SU1 to phytotoxic 10014 (S. griseolus ATCC11796): metabolized

SMILES: CCCN1Cc2cccc(S(=O)(=O)NC(=O)Nc3nc(OC)cc(OC)n3)c2S1(=O)=O [compound 10027, N-[(4,6-dimethoxypyrimidin-2-yl)aminocarbonyl]-2,3-dihydro-2-propyl-1,2-benzisothiazole-7-sulfonamide-1,1-dioxide]
- metabolism by P450SU1 to phytotoxic 10014 (S. griseolus ATCC11796): metabolized

SMILES: C=CCN1Cc2cccc(S(=O)(=O)NC(=O)Nc3nc(OC)cc(OC)n3)c2S1(=O)=O [compound 10028, N-[(4,6-dimethoxypyrimidin-2-yl)aminocarbonyl]-2,3-dihydro-2-(2-propenyl)-1,2-benzisothiazole-7-sulfonamide-1,1-dioxide]
- metabolism by P450SU1 to phytotoxic 10014 (S. griseolus ATCC11796): metabolized

SMILES: COc1cc(OC)nc(NC(=O)NS(=O)(=O)c2cccc3c2S(=O)(=O)N(C[Si](C)(C)C)C3)n1 [compound 10032, N-[(4,6-dimethoxypyrimidin-2-yl)aminocarbonyl]-2,3-dihydro-2-(trimethylsilylmethyl)-1,2-benzisothiazole-7-sulfonamide-1,1-dioxide]
- % Conversion to 10014 (S. griseolus ATCC11796; 3.0 mg sulfonylurea in 25 ml broth, 4 days): 0%

SMILES: Cc1cc(C)n2nc(S(=O)(=O)Nc3c(C)cccc3Cl)nc2n1 [compound 10033, N-(2-chloro-6-methylphenyl)-5,7-dimethyl-1,2,4-triazolo-1,5A-pyrimidine-2-sulfonamide]
- Percent Conversion [9]: 88%
- metabolism by bacteria containing constitutively expressed P450SU1 [9]: metabolized

SMILES: Cc1cc(C)nc(S(=O)(=O)Nc2c(Cl)cccc2Cl)n1 [compound 10036, N-(2,6-dichlorophenyl)-4,6-dimethyl-2-pyrimidinesulfonamide]
- Percent Conversion [9]: 100%
- metabolism by bacteria containing constitutively expressed P450SU1 [9]: metabolized
